What was measured:
Format in all cases: in vivo
[1] = system: Vetch Aphid (Megoura viciae); assay: B.7 Vetch aphid test on broad bean leaf disks; conditions: foliar, 120 h, in comparison with untreated controls, 5 days
Procedure: B.7 Vetch Aphid (Megoura viciae)
For evaluating control of vetch aphid (Megoura viciae) through contact or systemic means the test unit consisted of 24-well-microtiter plates containing broad bean leaf disks. The compounds were formulated using a solution containing 75% v/v water and 25% v/v DMSO. Different concentrations of formulated compounds were sprayed onto the leaf disks at 2.5 μl, using a custom built micro atomizer, at two replications. After application, the leaf disks were air-dried and 5-8 adult aphids placed on the leaf disks inside the microtiter plate wells. The aphids were then allowed to suck on the treated leaf disks and incubated at about 23±1° C. and about 50±5% relative humidity for 5 days. Aphid mortality and fecundity was then visually assessed.

[2] = system: Orchid Thrips (Dichromothrips corbetti); assay: B.4 Orchid thrips floral-immersion test; conditions: 96 h, in comparison with untreated controls, after 4 days
Procedure: B.4 Orchid Thrips (Dichromothrips Corbetti)
Dichromothrips corbetti adults used for bioassay are obtained from a colony maintained continuously under laboratory conditions. For testing purposes, the test compound is diluted to a concentration of 300 ppm (wt compound: vol diluent) in a 1:1 mixture of acetone:water (vol:vol), plus 0.01% vol/vol Kinetic® surfactant. Thrips potency of each compound is evaluated by using a floral-immersion technique. Plastic petri dishes are used as test arenas. All petals of individual, intact orchid flowers are dipped into treatment solution and allowed to dry. Treated flowers are placed into individual petri dishes along with 10-15 adult thrips. The petri dishes are then covered with lids. All test arenas are held under continuous light and a temperature of about 28° C. for duration of the assay. After 4 days, the numbers of live thrips are counted on each flower, and along inner walls of each petri dish. The level of thrips mortality is extrapolated from pre-treatment thrips numbers.

[3] = system: Green Peach Aphid (Myzus persicae); assay: B.3 Green peach aphid systemic test, artificial diet under membrane; conditions: 72 h, concentration of the test solution 2500 mg/L, 3 days
Description: B.3 Green Peach Aphid (Myzus persicae)
For evaluating control of green peach aphid (Myzus persicae) through systemic means the test unit consisted of 96-well-microtiter plates containing liquid artificial diet under an artificial membrane. The compounds were formulated using a solution containing 75% v/v water and 25% v/v DMSO. Different concentrations of formulated compounds were pipetted into the aphid diet, using a custom built pipetter, at two replications. After application, 5-8 adult aphids were placed on the artificial membrane inside the microtiter plate wells. The aphids were then allowed to suck on the treated aphid diet and incubated at about 23±1° C. and about 50±5% relative humidity for 3 days. Aphid mortality and fecundity was then visually assessed.

[4] = system: Boll Weevil (Anthonomus grandis); assay: B.9 Boll weevil microtiter diet test, egg and larval mortality; conditions: 120 h, in comparison with untreated controls, egg and larval mortality after 5 days
Procedure: B.9 Boll Weevil (Anthonomus grandis)
(§1) For evaluating control of boll weevil (Anthonomus grandis) the test unit consisted of 24-well-microtiter plates containing an insect diet and 20-30 A. grandis eggs. The compounds were formulated using a solution containing 75% v/v water and 25% v/v DMSO. Different concentrations of formulated compounds were sprayed onto the insect diet at 20 μl, using a custom built micro atomizer, at two replications. After application, microtiter plates were incubated at about 23±1° C. and about 50±5% relative humidity for 5 days. Egg and larval mortality was then visually assessed.

[5] = system: Silverleaf Whitefly (Bemisia argentifolii); assay: B.5 Silverleaf whitefly test on sprayed cotton plants; conditions: 72 h, in comparison with untreated controls, 3 days after treatment
Procedure: B.5 Silverleaf Whitefly (Bemisia argentifolii)
The active compounds were formulated in cyclohexanone as a 10,000 ppm solution supplied in 1.3 ml ABgene® tubes. These tubes were inserted into an automated electrostatic sprayer equipped with an atomizing nozzle and they served as stock solutions for which lower dilutions were made in 50% acetone:50% water (v/v). A nonionic surfactant (Kinetic®) was included in the solution at a volume of 0.01% (v/v). Cotton plants at the cotyledon stage (one plant per pot) were sprayed by an automated electrostatic plant sprayer equipped with an atomizing spray nozzle. The plants were dried in the sprayer fume hood and then removed from the sprayer. Each pot was placed into a plastic cup and 10 to 12 whitefly adults (approximately 3-5 days old) were introduced. The insects were collected using an aspirator and 0.6 cm, nontoxic Tygon® tubing (R-3603) connected to a barrier pipette tip. The tip, containing the collected insects, was then gently inserted into the soil containing the treated plant, allowing insects to crawl out of the tip to reach the foliage for feeding. Cups were covered with a reusable screened lid (150-micron mesh polyester screen PeCap from Tetko, Inc.). Test plants were maintained in a growth room at 25° C. and 20-40% relative humidity for 3 days, avoiding direct exposure to fluorescent light (24 hour photoperiod) to prevent trapping of heat inside the cup. Mortality was assessed 3 days after treatment, compared to untreated control plants.

[6] = system: Yellow Fever Mosquito (Aedes aegypti); assay: whole plant or invertebrate; conditions: 48 h, in comparison with untreated controls, larval mortality after 2 days
Procedure: B.12 Yellow Fever Mosquito (Aedes aegypti)
For evaluating control of yellow fever mosquito (Aedes aegypti) the test unit consisted of 96-well-microtiter plates containing 200 μl of tap water per well and 5-15 freshly hatched A. aegypti larvae. The compounds or mixtures were formulated using a solution containing 75% water and 25% DMSO. Different concentrations of formulated compounds or mixtures were sprayed onto the insect diet at 2.5 μl, using a custom built micro atomizer, at two replications. After application, microtiter plates were incubated at 28±1° C., 80±5% relative humidity for 2 days. Larval mortality was then visually assessed.

[7] = system: Cowpea Aphid (Aphis craccivora); assay: B.1 Cowpea aphid spray test on potted cowpea plants; conditions: in comparison with untreated controls, population reduction assessed after 24, 72 and 120 hours
Procedure: B.1 Cowpea Aphid (Aphis craccivora)
The active compounds were formulated in 50:50 (v/v) acetone:water. The test solution was prepared at the day of use. Potted cowpea plants colonized with approximately 100-150 aphids of various stages were sprayed after the pest population has been recorded. Population reduction was assessed after 24, 72, and 120 hours.

[8] = system: Mediterranean Fruitfly (Ceratitis capitata); assay: B.2 Mediterranean fruitfly microtiter diet test, egg and larval mortality; conditions: 120 h, in comparison with untreated controls, egg and larval mortality after 5 days
Procedure: B.2 Mediterranean Fruitfly (Ceratitis capitata)
as §1, with “Mediterranean fruitfly (Ceratitis capitata)” for “boll weevil (Anthonomus grandis)”, “microtiter” for “24-well-microtiter”, “50-80 C. capitata” for “20-30 A. grandis”, “5” for “20”, “28±1°” for “23±1°”, “80±5%” for “50±5%”

[9] = system: Rice brown plant hopper (Nilaparvata lugens); assay: B.11 Rice brown plant hopper test on sprayed rice seedlings; conditions: in comparison with untreated controls, after 72 hours
Procedure: B.11 Rice brown plant hopper (Nilaparvata lugens)
Rice seedlings were cleaned and washed 24 hours before spraying. The active compounds were formulated in 50:50 acetone:water (vol:vol) and 0.1% vol/vol surfactant (EL 620) was added. Potted rice seedlings were sprayed with 5 ml test solution, air dried, placed in cages and inoculated with 10 adults. Treated rice plants were kept at about 28-29° C. and relative humidity of about 50-60%. Percent mortality was recorded after 72 hours.

[10] = system: Green Soldier Stink Bug (Nezara viridula); assay: B.15 Green soldier stink bug test on sprayed soybean pods; conditions: 120 h, in comparison with untreated controls, after 5 days
Procedure: B.15 Green Soldier Stink Bug (Nezara viridula)
The active compound is dissolved at the desired concentration in a mixture of 1:1 (vol:vol) distilled water:aceteone. Surfactant (Kinetic HV) is added at a rate of 0.01% (vol/vol). The test solution is prepared at the day of use. Soybean pods were placed in microwavable plastic cups lined with moist filter paper and inoculated with ten 3rd instar N. viridula. Using a hand atomizer, an approximately 2 ml solution is sprayed into each cup. Treated cups were kept at about 28-29° C. and relative humidity of about 50-60%. Percent mortality was recorded after 5 days.

N#CC(C#N)(Cc1ncc(C(F)(F)F)cn1)c1cccc(F)c1 [II-18]
≥ 75%: mortality at 2500 ppm [1] | mortality at 500 ppm [2] | mortality at 2500 µg/mL [3] | mortality at 2500 ppm [4] | mortality at 500 ppm [5] | mortality at 2500 ppm [6]

COc1cccc(C(C#N)(C#N)Cc2ccc(C(F)(F)F)cn2)c1 [II-39]
≥ 75%: mortality at 2500 µg/mL [3]

N#CC(C#N)(Cc1ccc(C(F)(F)F)nc1)c1ccc(Cl)cc1 [II-2]
≥ 75%: mortality at 500 ppm [2] | mortality at 2500 ppm [4] | mortality at 500 ppm [5] | mortality at 500 ppm [7] | mortality at 2500 ppm [6]

N#CC(C#N)(Cc1ccc(F)cn1)c1ccc(F)cc1 [II-12]
≥ 75%: mortality at 500 ppm [5]

N#CC(C#N)(Cc1cnc(C(F)(F)F)nc1)c1ccc(F)cc1 [II-23]
≥ 75%: mortality at 2500 ppm [1] | mortality at 500 ppm [2] | mortality at 2500 µg/mL [3] | mortality at 2500 ppm [4] | mortality at 500 ppm [5] | mortality at 500 ppm [7] | mortality at 2500 ppm [6] | mortality at 2500 ppm [8] | mortality at 300 ppm [9]

N#CC(C#N)(Cc1ccc(C(F)(F)F)cn1)c1ccccc1 [II-4]
≥ 75%: mortality at 2500 ppm [1] | mortality at 500 ppm [2] | mortality at 2500 µg/mL [3] | mortality at 2500 ppm [4] | mortality at 500 ppm [5] | mortality at 500 ppm [7] | mortality at 500 ppm [10] | mortality at 2500 ppm [6] | mortality at 300 ppm [9]

N#CC(C#N)(Cc1ccc(Br)cn1)c1ccc(F)cc1 [II-10, 2-[(5-bromo-2-pyridyl)methyl]-2-(4-fluorophenyl)propanedinitrile]
≥ 75%: mortality at 500 ppm [2] | mortality at 2500 ppm [4] | mortality at 300 ppm [9]

Cc1cccc(C(C#N)(C#N)Cc2ccc(C(F)(F)F)cn2)c1 [II-37]
≥ 75%: mortality at 2500 ppm [6]

Cc1cc(C)cc(C(C#N)(C#N)Cc2ccc(C(F)(F)F)cn2)c1 [II-47]
≥ 75%: mortality at 500 ppm [7] | mortality at 2500 ppm [6]

N#CC(C#N)(Cc1ccc(C(F)(F)F)nc1)c1cc(F)cc(C(F)(F)F)c1 [II-46]
≥ 75%: mortality at 500 ppm [2] | mortality at 2500 ppm [6]

Cc1cccc(CC(C#N)(C#N)c2cc(F)c(F)c(F)c2)n1 [II-65]
≥ 75%: mortality at 500 ppm [2] | mortality at 2500 ppm [4] | mortality at 500 ppm [10] | mortality at 2500 ppm [6] | mortality at 300 ppm [9]

N#CC(C#N)(Cc1ccc(C(F)(F)F)nn1)c1cccc(F)c1 [II-15]
≥ 75%: mortality at 500 ppm [2] | mortality at 2500 µg/mL [3] | mortality at 2500 ppm [4] | mortality at 500 ppm [5] | mortality at 500 ppm [7] | mortality at 2500 ppm [6]

N#CC(C#N)(Cc1ccccn1)c1ccccc1 [II-29]
≥ 75%: mortality at 2500 ppm [6]

N#CC(C#N)(Cc1ccc(C(F)(F)F)nc1)c1cc(C(F)(F)F)cc(C(F)(F)F)c1 [II-54]
≥ 75%: mortality at 2500 ppm [6]

N#CC(C#N)(Cc1c(Cl)cncc1Cl)c1cc(F)c(F)c(F)c1 [II-66]
≥ 75%: mortality at 2500 ppm [1] | mortality at 2500 ppm [6]

N#CC(C#N)(Cc1ccc(C(F)(F)F)nn1)c1ccccc1 [II-13]
≥ 75%: mortality at 2500 µg/mL [3] | mortality at 2500 ppm [4] | mortality at 500 ppm [5] | mortality at 2500 ppm [6]

N#CC(C#N)(Cc1ccc(C(F)(F)F)cn1)c1ccccc1F [II-36]
≥ 75%: mortality at 2500 ppm [4] | mortality at 500 ppm [5] | mortality at 2500 ppm [6] | mortality at 300 ppm [9]

N#CC(C#N)(Cc1ccc(C(F)(F)F)cn1)c1cccc(F)c1F [II-49]
≥ 75%: mortality at 500 ppm [2] | mortality at 500 ppm [10] | mortality at 300 ppm [9]

Cc1cccc(C(C#N)(C#N)Cc2ccc(C(F)(F)F)nc2)c1 [II-22]
≥ 75%: mortality at 300 ppm [9]

C#Cc1ccc(C(C#N)(C#N)Cc2ccc(C(F)(F)F)nc2)cc1 [II-1]
≥ 75%: mortality at 2500 ppm [4] | mortality at 500 ppm [5] | mortality at 300 ppm [9]

N#CC(C#N)(Cc1cnc(C(F)(F)F)nc1)c1cccc(F)c1 [II-21]
≥ 75%: mortality at 2500 ppm [1] | mortality at 500 ppm [2] | mortality at 2500 ppm [4] | mortality at 500 ppm [5] | mortality at 500 ppm [7] | mortality at 500 ppm [10] | mortality at 2500 ppm [6] | mortality at 300 ppm [9]

N#CC(C#N)(Cc1ccc(C(F)(F)F)cn1)c1cc(C(F)(F)F)cc(C(F)(F)F)c1 [II-60]
≥ 75%: mortality at 2500 ppm [6]

N#CC(C#N)(Cc1ccc(C(F)(F)F)nc1)c1ccccc1F [II-24]
≥ 75%: mortality at 500 ppm [2] | mortality at 2500 ppm [4] | mortality at 500 ppm [5] | mortality at 2500 ppm [6] | mortality at 300 ppm [9]

N#CC(C#N)(Cc1cnc(C(F)(F)F)cn1)c1ccc(F)cc1 [II-27]
≥ 75%: mortality at 2500 ppm [1] | mortality at 500 ppm [2] | mortality at 2500 ppm [4] | mortality at 500 ppm [5] | mortality at 2500 ppm [6] | mortality at 2500 ppm [8] | mortality at 300 ppm [9]

Reference: patent US10117430B2, “Malononitrile compounds for controlling animal pests” (BASF SE, priority 2012, dated 2018)
